Values quoted from earlier work as cited in US7737327B2, “Methods for screening for genes and small molecules that activate mammalian receptor proteins” (The University of Kentucky Research Foundation, priority 2004, dated 2010).

Assays:
[1] = mice on a high-cholesterol diet
[2] = test system: mouse mammary tumor virus promoter; settings: only when low level of inducer (200 nm dexamethasone) present simultaneously

Row | Compound | effect on hepatic cholesterol [1] | effect on activity of mouse mammary tumor virus promoter [2]
1 | C/C=C1\C(=O)C[C@H]2[C@@H]3CCC4=CC(=O)CC[C@]4(C)[C@H]3CC[C@]12C [guggelsterone] | decrease hepatic cholesterol | 
2 | (−)-epigallocatechin-3-O-gallate |  | enhance the activity
